Source: patent US10688086B2, “Method for treating cancer with dihydropyridine calcium antagonist” (GERMARK BIOTECHNOLOGY CO., LTD, priority 2016, dated 2020)

Tests used:
[1] = system: patients having lung cancer; assay: NHIRD statistical analysis of death/survival with vs without Amlodipine, lung cancer; type: in vivo, human
[2] = system: patients having pancreatic cancer; assay: NHIRD statistical analysis of death/survival with vs without Amlodipine, pancreatic cancer; type: in vivo, human
HepG2 cells [3] = assay: Cell metastasis (Transwell, Calcein AM fluorescence), HepG2; type: cell-based; details: 10 μM, 48 or 72 hrs
Method: (§1) The HepG2 and Hep3B cells were separately cultured in an insert of the Transwell plate, then added with 10 μM Amlodipine and cultured for 48 or 72 hrs. The insert was placed in a serum-free DMEM medium containing […] Calcien AM. Fluorescent staining was carried out in a culture environment at 37° C. After about 45-60 min, the cells were scraped off with 0.05% Trypsin-EDTA, and the fluorescence intensity at a wavelength of 490 to 520 nm was measured.

HepG2 cells [4] = assay: Western blotting of apoptosis-related proteins, HepG2; type: cell-based; details: various concentrations, 24 hours
Method: (§2) The expression of apoptosis-related genes in each liver cancer cell line treated with various concentrations of Amlodipine for 24 hours were detected by Western blotting.

Hep3B cells [5] = assay: Cell metastasis (Transwell, Calcein AM fluorescence), Hep3B; type: cell-based; details: 10 μM, 48 or 72 hrs
Method: as §1

Hep3B cells [6] = assay: Western blotting of apoptosis-related proteins, Hep3B; type: cell-based; details: various concentrations, 24 hours
Method: as §2

[7] = system: patients with gastric cancer; assay: NHIRD statistical analysis of death/survival with vs without Amlodipine, gastric cancer; type: in vivo, human
Method: In this example, statistical analysis was performed on the statistics of the effects of Amlodipine in the treatment of cancers, using data from the National Health Insurance Research Database (NHIRD) covering detailed healthcare data for the population in Taiwan. Then, the diagnostic data at the time of admission in the database and the database of patients with registered major injuries were used, and statistical analysis was performed using data from patients with gastric cancer.
The dose of Amlodipine used in Example 1 was at least 120 mg/30 days. Therefore, in order to obtain the minimum effective dose, the survival rate of patients treated with Amlodipine for days in 90 days after cancer diagnosis was further statistically analyzed.

Hep3B cells [8] = assay: Cell invasion (Transwell, crystal violet), Hep3B; type: cell-based; details: 10 μM, 72 hrs
Method: The HepG2 and Hep3B cells were separately cultured in the insert of the Transwell plate, then added with 10 μM Amlodipine and cultured for 48 or 72 hrs. The cells on the inner surface of the insert were taken out, and the insert was placed in methanol and stained with a crystal violet solution. […] That is, Amlodipine is effective in slowing the progression of cancers, thereby achieving a therapeutic effect in the treatment of cancers.

HepG2 cells [9] = assay: Cell viability (WST-1 72 hrs; PI flow cytometry 48 hrs), HepG2; type: cell-based
Method: Two liver cancer cell lines HepG2 and Hep3B were cultured. The medium used for the culture of the cells was DMEM medium containing 10% fetal bovine serum, 10,000 U/ml penicillin and 10,000 μg/ml streptomycin. The culture occurred in an environment at 37° C. with 5% CO2, and the medium was changed every 2-3 days during the culture. After the cells were cultured to about 70% confluence, they were treated with various concentrations of Amlodipine: 0, 1.5625, 3.125, 6.25, 12.5, 25, and 50 μM for various times: 48, and 72 hrs. After the experiment, the viability of each liver cancer cell line was observed and the cell viability and cell cycle were analyzed. The HepG2 and Hep3B cells treated with various concentrations of Amlodipine for 72 hrs were added to WST-1 reagent. After 330 minutes of reaction, the absorbance at a wavelength of 420-480 nm was measured. The HepG2 and Hep3B cells treated with various concentrations of Amlodipine for 48 hrs were scraped off with 0.05% Trypsin-EDTA, and then added to 2 mg/ml PI solution. The cell viability was analyzed by flow cytometry.

liver cancer cells Hep3B = assay: Cell cycle analysis by flow cytometry, Hep3B; type: cell-based
Method: Two liver cancer cell lines HepG2 and Hep3B were cultured. The medium used for the culture of the cells was DMEM medium containing 10% fetal bovine serum, 10,000 U/ml penicillin and 10,000 μg/ml streptomycin. The culture occurred in an environment at 37° C. with 5% CO2, and the medium was changed every 2-3 days during the culture. After the cells were cultured to about 70% confluence, they were treated with various concentrations of Amlodipine: 0, 1.5625, 3.125, 6.25, 12.5, 25, and 50 μM for various times: 48, and 72 hrs. After the experiment, the viability of each liver cancer cell line was observed and the cell viability and cell cycle were analyzed. The cell cycle of each liver cancer cell line treated under different conditions was analyzed by flow cytometry. […] Still further, each liver cancer cell line was treated with Amlodipine at a concentration of 12.5 μM for 0, 12, 24, 36 and 48 hrs, and the cell cycle was analyzed by flow cytometry.

[10] = system: patients having liver cancer; assay: NHIRD statistical analysis of death/survival with vs without Amlodipine, liver cancer; type: in vivo, human
[11] = system: patients having colorectal cancer; assay: NHIRD statistical analysis of death/survival with vs without Amlodipine, colorectal cancer; type: in vivo, human
[12] = 24/30: Amlodipine at least 24 days within 30 days after cancer diagnosis
[13] = 48/60: Amlodipine at least 48 days within 60 days after cancer diagnosis
[14] = Amlodipine for 20 days within 90 days after diagnosis
[15] = day of treatment with Amlodipine 72/9
[16] = 72/90: Amlodipine at least 72 days within 90 days after cancer diagnosis
[17] = 12.5 μM Amlodipine, treatment time 12 hr
[18] = 12.5 μM Amlodipine, treatment time 24 hr
[19] = 12.5 μM Amlodipine, treatment time 36 hr
[20] = 12.5 μM Amlodipine, treatment time 48 hr

In the case of `CCOC(=O)C1=C(COCCN)NC(C)=C(C(=O)OC)C1c1ccccc1Cl` (stereo not shown) [Amlodipine], the “Crude HR HRs (95% C.I.)” value [1, 12] is reported as 0.66 (0.62-0.70), the “Crude HR HRs (95% C.I.)” value [1, 13] is reported as 0.62 (0.58-0.67) and the “Crude HR HRs (95% C.I.)” value [1, 14] is reported as 0.85 (0.80-0.90). The “Crude HR HRs (95% C.I.)” value [1, 15] was 0.62 (0.58-0.66), the “Crude HR HRs (95% C.I.)” value [2, 12] was 0.62 (0.51-0.75) and the “Crude HR HRs (95% C.I.)” value [2, 13] was 0.63 (0.51-0.77). The “Crude HR HRs (95% C.I.)” value [2, 16] was 0.71 (0.57-0.88), the “Crude HR HRs (95% C.I.)” value [2, 14] was 0.77 (0.65-0.93) and the “fluorescence intensity (cell metastasis) vs cells not treated with Amlodipine” value (HepG2 cells [3]) was “lower”. For the same compound, the “intracellular expression of apoptotic proteins (Western blotting)” value (HepG2 cells [4]) was “results in the intracellular expression of apoptotic proteins”, the “fluorescence intensity (cell metastasis) vs cells not treated with Amlodipine” value (Hep3B cells [5]) was “lower” and the “intracellular expression of apoptotic proteins (Western blotting)” value (Hep3B cells [6]) was “results in the intracellular expression of apoptotic proteins”. For the same compound, the “Crude HR HRs (95% C.I.)” value [7, 12] was 0.43 (0.39-0.47), the “Crude HR HRs (95% C.I.)” value [7, 13] was 0.43 (0.39-0.48) and the “Crude HR HRs (95% C.I.)” value [7, 16] was 0.42 (0.38-0.47). The “Crude HR HRs (95% C.I.)” value [7, 14] was 0.73 (0.66-0.80), the “fluorescence intensity (cell invasion) vs cells not treated with Amlodipine” value (Hep3B cells [8]) was “lower” and the “Amlodipine concentration at which the best inhibitory effect on the growth of liver cancer cells is achieved” value (HepG2 cells [9]) was “greater than or equal to 12.5 μM”. For the same compound, the “cell viability of liver cancer cells treated with Amlodipine” value (HepG2 cells [9]; 1.5625-50 μM, 48 and 72 hrs, FIGS. 9, 11, 12) was “decreased”, the “Proportion of cell distribution in cell cycle (%) M1:” value (shortened to “Proportion … (%) M1:”) (liver cancer cells Hep3B; 1.5625 μM Amlodipine, 48 hrs) was 5.34% and the “Proportion of cell distribution in cell cycle (%) M2:” value (“Proportion … (%) M2:” below) (liver cancer cells Hep3B; 1.5625 μM Amlodipine, 48 hrs) was 74.88%. The “Proportion of cell distribution in cell cycle (%) M3:” value (from here on “Proportion … (%) M3:”) (liver cancer cells Hep3B; 1.5625 μM Amlodipine, 48 hrs) was 7.06%, the “Proportion of cell distribution in cell cycle (%) M4:” value (shortened to “Proportion … (%) M4:”) (liver cancer cells Hep3B; 1.5625 μM Amlodipine, 48 hrs) was 12.82% and the “Proportion … (%) M1:” value (liver cancer cells Hep3B; 3.125 μM Amlodipine, 48 hrs) was 6.51%. The “Proportion … (%) M2:” value (liver cancer cells Hep3B; 3.125 μM Amlodipine, 48 hrs) was 73.83%, the “Proportion … (%) M3:” value (liver cancer cells Hep3B; 3.125 μM Amlodipine, 48 hrs) was 6.63% and the “Proportion … (%) M4:” value (liver cancer cells Hep3B; 3.125 μM Amlodipine, 48 hrs) was 13.17%. For the same compound, the “Proportion … (%) M1:” value (liver cancer cells Hep3B; 6.25 μM Amlodipine, 48 hrs) was 6.48%, the “Proportion … (%) M2:” value (liver cancer cells Hep3B; 6.25 μM Amlodipine, 48 hrs) was 72.91% and the “Proportion … (%) M3:” value (liver cancer cells Hep3B; 6.25 μM Amlodipine, 48 hrs) was 6.74%. For the same compound, the “Proportion … (%) M4:” value (liver cancer cells Hep3B; 6.25 μM Amlodipine, 48 hrs) was 13.93%, the “Proportion … (%) M1:” value (liver cancer cells Hep3B; 12.5 μM Amlodipine, 48 hrs) was 16.96% and the “Proportion … (%) M2:” value (liver cancer cells Hep3B; 12.5 μM Amlodipine, 48 hrs) was 67.77%. The “Proportion … (%) M3:” value (liver cancer cells Hep3B; 12.5 μM Amlodipine, 48 hrs) was 6.58%, the “Proportion … (%) M4:” value (liver cancer cells Hep3B; 12.5 μM Amlodipine, 48 hrs) was 8.83% and the “Proportion … (%) M1:” value (liver cancer cells Hep3B; [17]) was 24.89%. For the same compound, the “Proportion … (%) M2:” value (liver cancer cells Hep3B; [17]) was 62.89%, the “Proportion … (%) M3:” value (liver cancer cells Hep3B; [17]) was 4.22% and the “Proportion … (%) M4:” value (liver cancer cells Hep3B; [17]) was 8.08%. For the same compound, the “Proportion … (%) M1:” value (liver cancer cells Hep3B; [18]) was 30.77%, the “Proportion … (%) M2:” value (liver cancer cells Hep3B; [18]) was 56.25% and the “Proportion … (%) M3:” value (liver cancer cells Hep3B; [18]) was 5.46%. For the same compound, the “Proportion … (%) M4:” value (liver cancer cells Hep3B; [18]) was 7.55%, the “Proportion … (%) M1:” value (liver cancer cells Hep3B; [19]) was 39.90% and the “Proportion … (%) M2:” value (liver cancer cells Hep3B; [19]) was 47.73%. For the same compound, the “Proportion … (%) M3:” value (liver cancer cells Hep3B; [19]) was 5.03%, the “Proportion … (%) M4:” value (liver cancer cells Hep3B; [19]) was 7.47% and the “Proportion … (%) M1:” value (liver cancer cells Hep3B; [20]) was 56.61%. For the same compound, the “Proportion … (%) M2:” value (liver cancer cells Hep3B; [20]) was 29.59%, the “Proportion … (%) M3:” value (liver cancer cells Hep3B; [20]) was 7.08% and the “Proportion … (%) M4:” value (liver cancer cells Hep3B; [20]) was 6.82%. For the same compound, the “cell division (cell cycle, in words)” value (liver cancer cells Hep3B; 12.5 μM or more, 48 hrs) was “most cells were unable to undergo cell division”, the “Proportion … (%) M1:” value (liver cancer cells Hep3B; 25 μM Amlodipine, 48 hrs) was 57.32% and the “Proportion … (%) M2:” value (liver cancer cells Hep3B; 25 μM Amlodipine, 48 hrs) was 28.75%. For the same compound, the “Proportion … (%) M3:” value (liver cancer cells Hep3B; 25 μM Amlodipine, 48 hrs) was 8.02%, the “Proportion … (%) M4:” value (liver cancer cells Hep3B; 25 μM Amlodipine, 48 hrs) was 6.10% and the “Crude HR HRs (95% C.I.)” value [10, 12] was 0.55 (0.53-0.59). For the same compound, the “Crude HR HRs (95% C.I.)” value [10, 13] was 0.54 (0.51-0.57), the “Crude HR HRs (95% C.I.)” value [10, 16] was 0.55 (0.52-0.58) and the “Crude HR HRs (95% C.I.)” value [10, 14] was 0.73 (0.69-0.77). The “Crude HR HRs (95% C.I.)” value [11, 12] was 0.46 (0.44-0.49), the “Crude HR HRs (95% C.I.)” value [11, 13] was 0.44 (0.42-0.47) and the “Crude HR HRs (95% C.I.)” value [11, 14] was 0.76 (0.72-0.80). The “Crude HR HRs (95% C.I.)” value [11, 15] was 0.44 (0.42-0.47).
